SMILES strings stand for the structures.

The target in one experiment is T1, P2X7 receptor (Homo sapiens, UniProt Q99572).
T1 construct: host or cells: SH-SY5Y
T1 sequence (Q99572 1-595): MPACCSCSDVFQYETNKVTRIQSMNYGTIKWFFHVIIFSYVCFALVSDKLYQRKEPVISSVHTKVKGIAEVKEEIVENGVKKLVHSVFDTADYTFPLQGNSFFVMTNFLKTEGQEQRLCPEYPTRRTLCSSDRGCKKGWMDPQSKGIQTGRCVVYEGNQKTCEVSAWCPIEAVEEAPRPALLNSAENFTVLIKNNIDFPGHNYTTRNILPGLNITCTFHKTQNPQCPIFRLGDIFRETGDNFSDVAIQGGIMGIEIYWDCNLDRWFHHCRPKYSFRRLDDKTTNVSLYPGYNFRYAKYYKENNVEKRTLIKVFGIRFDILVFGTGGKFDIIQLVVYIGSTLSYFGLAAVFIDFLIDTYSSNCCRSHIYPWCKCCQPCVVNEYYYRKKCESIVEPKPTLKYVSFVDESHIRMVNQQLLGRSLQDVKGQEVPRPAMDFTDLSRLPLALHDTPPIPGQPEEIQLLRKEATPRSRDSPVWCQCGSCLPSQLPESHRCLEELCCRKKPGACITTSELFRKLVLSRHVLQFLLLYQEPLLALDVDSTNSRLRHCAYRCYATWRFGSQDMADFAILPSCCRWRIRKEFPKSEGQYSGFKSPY
Description: P2X7 calcium mobilization assay, high throughput, antagonist activity (Example 4A).
Conditions: not given
Type of experiment: cell-based. The gist of the method:
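Cells plated at 100,000/well the day before were dye-loaded for 1 h, then incubated 1 h at room temperature with test compound before agonist-triggered calcium mobilization was read on FLIPR Tetra. Maximum RFU was corrected by subtracting the no-agonist control and related to the agonist-control response.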
A general note: A change in cytosolic calcium serves as a functional read-out for many receptors and channels.
For orientation: IC50 means the concentration that inhibits the measured activity by half. On to `CCOC(=O)c1cnn(Cc2cn3c(C(=O)NCC45CC6CC(CC(C6)C4)C5)cccc3n2)c1` [Compound 204, ethyl 1-({5-[(adamantan-1-ylmethyl)carbamoyl]imi-dazo[1,2-a]pyridin-2-yl}methyl)-1H-pyrazole-4-carboxylate], for which the IC50 is under 2 µM.
With `CCOC(=O)Cc1cn2c(C(=O)NCC34CC5CC(CC(C5)C3)C4)cccc2n1` [Compound 4, ethyl {5-[(adamantan-1-ylmethyl)carbamoyl]imi-dazo[1,2-a]pyridin-2-yl}acetate], the half-maximal inhibitory concentration (IC50) is under 2 µM.

The same experiment, now with this note: 50% decrease in the fluorescence response of cells exposed to 80 μM 2′(3′)-O-(4-benzoyl-benzoyl)adenosine 5′-triphosphate; Example 4A; read-out: IC50.
`C[C@H]1CN(C(=O)c2cn3c(C(=O)NCC45CC6CC(CC(C6)C4)C5)cccc3n2)CCN1` [Compound 616, N-(adamantan-1-ylmethyl)-2-{[(3S)-3-methylpiperazin-1-yl]carbonyl}imidazo[1,2-a]pyridine-5-carboxamide]: the half-inhibitory concentration (IC50) was under 2 µM.
The same measure, in the same setting: the figure for `C[C@H]1CNCCN1C(=O)Cc1cn2c(C(=O)NC[C@@H]3CC[C@@H]4C[C@H]3C4(C)C)cccc2n1` [Compound 557, N-{[(1R,2R,5R)-6,6-dimethylbicyclo[3.1.1]hept-2-yl]methyl}-2-{2-[(2S)-2-methylpiperazin-1-yl]-2-oxoethyl}imidazo [1,2-a]pyridine-5-carboxamide] is under 2 µM.
The same measure, in the same setting: the figure for `O=C(NCC12CC3CC(CC(C3)C1)C2)c1cccc2nc(C(=O)N3C[C@@H]4C[C@H]3CN4)cn12` [Compound 609, N-(adamantan-1-ylmethyl)-2-[(1S,4S)-2,5-diazabicyclo [2.2.1]hept-2-ylcarbonyl]imidazo[1,2-a]pyridine-5-carboxamide] is under 2 µM.
For `CC1(C)[C@@H]2CC[C@@H](CNC(=O)c3cccc4nc(CC(=O)N5CCC[C@H]5CN)cn34)[C@H]1C2` [Compound 587, 2-{2-[(2S)-2-(aminomethyl)pyrrolidin-1-yl]-2-oxoethyl}-N-{[(1R,2R,5R)-6,6-dimethylbicyclo [3.1.1]hept-2-yl]methyl}imidazo[1,2-a]pyridine-5-carboxamide], the IC50 is under 2 µM.
Same read-out and setting: then `CC1(C)[C@@H]2CC[C@@H](CNC(=O)c3cccc4nc(CC(=O)NC5CCNC5)cn34)[C@H]1C2` (stereo partly drawn) [Compound 591, N-{[(1R,2R,5R)-6,6-dimethylbicyclo[3.1.1]hept-2-yl]methyl}-2-[2-oxo-2-(pyrrolidin-3-ylamino)ethyl]imidazo [1,2-a]pyridine-5-carboxamide], with under 2 µM.

Staying with this experiment, now noted: 50% decrease in the fluorescence response of cells exposed to 80 μM of 2′(3′)-O-(4-benzoyl-benzoyl)adenosine 5′-triphosphate; Example 4A; read-out: IC50.
As to `CN1CCCCC1CCNC(=O)c1cn2c(C(=O)NCC34CC5CC(CC(C5)C3)C4)cccc2n1` (stereo not drawn) [Compound 664, 5-N-(adamantan-1-ylmethyl)-2-N-[2-(1-methylpiperidin-2-yl)ethyl]imidazo[1,2-a]pyridine-2,5-dicarboxamide], the 50% inhibitory concentration (IC50) is under 2 µM.
Still for that read-out and setting: then `O=C(NCC12CC3CC(CC(C3)C1)C2)c1cccc2nc(C(Cc3ccccc3)C(=O)O)cn12` (stereo not drawn) [Compound 755, 2-{5-[(adamantan-1-ylmethyl)carbamoyl]imidazo[1,2-a]pyridin-2-yl}-3-phenylpropanoic acid], with under 2 µM; and `N[C@@H]1CCN(Cc2cn3c(C(=O)NCC(CC4CCCCC4)c4ccccc4)cccc3n2)C1` (stereo partly drawn) [Compound 787, 2-[(3-aminopyrrolidin-1-yl)methyl]-N-(3-cyclohexyl-2-phenylpropyl) imidazo[1,2-a] pyridine-5-carboxamide], with under 2 µM.
Still for that read-out and setting: the figure for `CC(C)CC(CNC(=O)c1cccc2nc(CSCCN)cn12)c1cccnc1` (stereo not drawn) [Compound 744, 2-{[(2-aminoethyl)thio]methyl}-N-(4-methyl-2-pyridin-3-ylpentyl)imidazo [1,2-a]pyridine-5-carboxamide] is under 2 µM.

Still in this experiment, the particulars now being: 50% decrease in the fluorescence response of cells exposed to 80 μM of 2′(3′)-O-(4-benzoyl-benzoyl)adenosine 5′-triphosphate; determined as in Example 4A; read-out: IC50.
On to `O=C(Cc1cn2c(C(=O)NCC34CC5CC(CC(C5)C3)C4)cccc2n1)N[C@@H]1CCCNC1` [Compound 838, N-(adamantan-1-ylmethyl)-2-{2-oxo-2-[(3R)-piperidin-3-ylamino]ethyl} imidazo[1,2-a] pyridine-5-carboxamide], for which the IC50 is under 2 µM.
On the same count and under the same terms, the figure for `CC(C)CC(CNC(=O)c1cccc2nc(C(=O)n3ccc(N)n3)cn12)c1ccc(Cl)cc1` (stereo not drawn) [Compound 854, 2-[(3-amino-1H-pyrazol-1-yl)carbonyl]-N-[2-(4-chlorophenyl)-4-methylpentyl] imidazo [1,2-a]pyridine-5-carboxamide] is under 2 µM; for `CC(C)CC(CNC(=O)c1cccc2nc(C3CCC(C(=O)O)CC3)cn12)c1ccc(Cl)cc1` (stereo not drawn) [Compound 969, 4-(5-{[2-(4-chlorophenyl)-4-methylpentyl]carbamoyl}imidazo[1,2-a]pyridin-2-yl)cyclohexane-carboxylic acid] it is under 2 µM.
`O=C(Cc1cn2c(C(=O)NCC3(c4ccc(Cl)cc4)CCOCC3)cccc2n1)NCC(F)(F)F` [Compound 872, N-{[4-(4-chlorophenyl)tetrahydro-2H-pyran-4-yl]methyl}-2-{2-oxo-2-[(2,2,2-trifluoroethyl)amino]ethyl}imidazo [1,2-a]pyridine-5-carboxamide]: the IC50 was under 2 µM.
On the same count and under the same terms, then `CCOC(=O)C(CC1CC1)c1cn2c(C(=O)NCC3(c4ccc(Cl)cc4)CCCCC3)cccc2n1` (stereo not drawn) [Compound 1009, ethyl 2-[5-({[1-(4-chlorophenyl)cyclohexyl]methyl}carbamoyl)imidazo[1,2-a]pyridin-2-yl]-3-cyclopropylpropanoate], with under 2 µM; and `COc1ccc(C2(CNC(=O)c3cccc4nc(CC(=O)N[C@@H]5CCNC5)cn34)CCCCC2)cc1` [Compound 952, N-{[1-(4-methoxyphenyl)cyclohexyl]methyl}-2-{2-oxo-2-[(3R)-pyrrolidin-3-ylamino]ethyl}imidazo[1,2-a]pyridine-5-carboxamide], with under 2 µM; and `O=C(Cc1cn2c(C(=O)NCC3(c4ccc(Cl)cc4)CCCCC3)cccc2n1)N[C@@H]1CCNC1` [Compound 961, N-{[1-(4-chlorophenyl)cyclohexyl]methyl}-2-{2-oxo-2-[(3R)-pyrrolidin-3-ylamino]ethyl} imidazo [1,2-a]pyridine-5-carboxamide], with under 2 µM.
On the same count and under the same terms, then `CC(C)CC(CNC(=O)c1cccc2nc(CC(Cc3ccccc3)C(=O)O)cn12)c1ccc(C(F)(F)F)cc1` (stereo not drawn) [Compound 1008, 2-benzyl-3-[5-({4-methyl-2-[4-(trifluoromethyl)phenyl]pentyl}carbamoyl)imidazo[1,2-a]pyridin-2-yl] propanoic acid], with under 2 µM.

The experiment is the same for the next values; noted with them: SH-SY5Y cells; 50% decrease in fluorescence response to 80 μM BzATP; read-out: IC50.
With `CC(C)N1CCN(C(=O)Cc2cn3c(C(=O)NCC45CC6CC(CC(C6)C4)C5)cccc3n2)CC1` [Compound 164, N-(adamantan-1-ylmethyl)-2-[2-(4-isopropylpiperazin-1-yl)-2-oxoethyl]imidazo[1,2-a]pyridine-5-carboxamide], the IC50 is under 2 µM.
Same read-out and setting: the figure for `CC(=O)N1CCN(C(=O)Cc2cn3c(C(=O)NCC45CC6CC(CC(C6)C4)C5)cccc3n2)CC1` [Compound 166, 2-[2-(4-acetylpiperazin-1-yl)-2-oxoethyl]-N-(adamantan-1-ylmethyl)imidazo[1,2-a]pyridine-5-carboxamide] is under 2 µM.

The experiment is the same for the next values; noted with them: fluorescence response of cells exposed to 80 μM 2′(3′)-O-(4-benzoyl-benzoyl)adenosine 5′-triphosphate; Example 4A; read-out: IC50.
As for `O=C(NCC12CC3CC(CC(C3)C1)C2)c1cccc2nc(CN3CCSCC3)cn12` [Compound 352, N-(adamantan-1-ylmethyl)-2-(thiomorpholin-4-ylmethyl)imidazo[1,2-a]pyridine-5-carboxamide], the 50% inhibitory concentration (IC50) is under 2 µM.
Still for that read-out and setting: then `CC(C)CNC(=O)Cc1cn2c(C(=O)NCC(CC(C)C)c3ccccc3)cccc2n1` (stereo not drawn) [Compound 223, 2-[2-(isobutylamino)-2-oxoethyl]-N-(4-methyl-2-phenylpentyl) imidazo [1,2-a]pyridine-5-carboxamide], with under 2 µM; and `COCCN(C(=O)c1cn2c(NC(=O)CC34CC5CC(CC(C5)C3)C4)cccc2n1)C(C)C` [Compound 379, 5-[(adamantan-1-ylacetyl)amino]-N-isopropyl-N-(2-methoxyethyl)imidazo [1,2-a]pyridine-2-carboxamide], with under 2 µM; and `CNCC(=O)NCCc1cn2c(C(=O)NCC34CC5CC(CC(C5)C3)C4)cccc2n1` [Compound 270, N-(adamantan-1-ylmethyl)-2-{2-[(N-methylglycyl)amino]ethyl}imidazo[1,2-a] pyridine-5-carboxamide], with under 2 µM.
The same measure, in the same setting: then `CCCCCN(CCO)C(=O)c1cn2c(NC(=O)CC34CC5CC(CC(C5)C3)C4)cccc2n1` [Compound 410, 5-[(adamantan-1-ylacetyl)amino]-N-(2-hydroxyethyl)-N-pentylimidazo[1,2-a]pyridine-2-carboxamide], with under 2 µM; and `NCC(=O)NCCc1cn2c(C(=O)NCC34CC5CC(CC(C5)C3)C4)cccc2n1` [Compound 269, N-(adamantan-1-ylmethyl)-2-[2-(glycylamino)ethyl] imidazo[1,2-a] pyridine-5-carboxamide], with under 2 µM.

The values are drawn from patent publication US8431593B2, “Heteroaryl amide derivatives” (H. Lundbeck A/S, priority 2006, dated 2013).
